Measurements published in patent US20080319042A1, “Compositions and methods for treatment of liver disease” (priority 2007, published 2008).
Converted amounts (≈) assume the structure as drawn. “And” between values parts separate entries of the source, which are not always exact repeats. Equal values may be shown once.

Legend:
HCV JFH1 = HCV JFH1 infectivity assay (JFH1 Foci Reduction Assay); format: cell-based, hepatitis C virus; settings: virus preincubated with compound, Huh 7 cells, 48 hr post infection, RD8, RD16, RD17, RD18 as glucosidase hydrolysis products
HCV/HIV pseudovirions = experiment: microbe, parasite or virus in culture; format: cell-based, hepatitis C virus
HBeAg = experiment: Anti-HBSAg Assay (Procedure B), HBeAg; format: cell-based, hepatitis B virus
HBsAg = experiment: Anti-HBSAg Assay (Procedure B), HBsAg; format: cell-based, hepatitis B virus
Experimental: The HBV-producing human hepatoblastoma cell line, Hep G2 2.2.15 is maintained in DMEM supplemented with 10% fetal bovine serum (FBS), 2 mM glutamine, 100 units/ml penicillin, 100 μg/ml streptomycin at 37° C. under 5% CO2 in air.
Samples were dissolved in DMSO at the concentration of 20 mg/mL, then further diluted with DMEM medium to the appropriate concentration.
Hep G2 2.2.15 cells (120 μl) were seeded onto 96-well plates at a concentration of 2×10^5 cells/mL. The cells incubated for 72 h in the medium without G418, after which the test samples (120 μl) were added. Five 3-fold serial dilutions of samples were tested. PBS and 3TC (lamivudine) were included as the negative and positive controls, respectively. The treated cells were incubated at 37° C. for 9 days; with the medium with sample being changed each 3 days, after which the culture supernatant was removed for analysis of both the hepatitis B surface antigen (HBsAg) production and hepatitis B DNA expression.
The HBsAg released into the culture medium in the presence or absence of test material was assayed using the kit manufactured by Shanghai Siic Kehua Biotech Co., Ltd (Shanghai, China). This enzyme immunoassay is based on the capture of HBsAg on monoclonal antibody-coated plates. Four- and twelve-fold dilutions of all culture supernatants collected were assayed in triplicate wells of the kit plate. The percentage inhibition of HBsAg secretion in the presence of the compound was calculated against the negative control (PBS). The IC50 values, the dose that inhibited viruses by 50%, were calculated using non-linear regression analysis (percent survival versus concentration).

HBV DNA = experiment: Anti-HBV DNA Assay; format: cell-based, hepatitis B virus; settings: for HBV DNA copies/ml: replicates, listed as HP-S4
[1] = Enzyme Hydrolysis Processing Time 0.5 hours
[2] = Enzyme Hydrolysis Processing Time 4.0 hours

COC(=O)C1=COC(O)C2C1CC(O)C2C (mixture of isomers) [RD-8]
Estimated IC50 (inhibition of HCV JFH1 infectivity) (HCV JFH1): 15 µg/mL
HCV Inhibition at 20 μg/mL (HCV/HIV pseudovirions; [1]): 24.8
HCV Inhibition at 20 μg/mL (HCV/HIV pseudovirions; [2]): 41.4

COC(=O)C1=COC(O)C2C1C(O)CC2(C)O (mixture of isomers) [RD-16]
Estimated IC50 (inhibition of HCV JFH1 infectivity) (HCV JFH1): 14 µg/mL
HCV Inhibition at 20 μg/mL (HCV/HIV pseudovirions; [1]): 49.0
HCV Inhibition at 20 μg/mL (HCV/HIV pseudovirions; [2]): 61.2

OCC1=C[C@@H](O)[C@@H]2C=CO[C@@H](O)[C@H]12 [aucubin aglycone]
HBeAg Ave (HBeAg; 6.25 μg/mL): 1.299
HBeAg Inhibition % (HBeAg; 6.25 μg/mL): 0%
HBeAg OD1 (HBeAg; 6.25 μg/mL): 1.327
HBeAg OD2 (HBeAg; 6.25 μg/mL): 1.265
HBeAg OD3 (HBeAg; 6.25 μg/mL): 1.304
HBeAg Ave (HBeAg; 12.5 μg/mL): 1.393
HBeAg Inhibition % (HBeAg; 12.5 μg/mL): 0%
HBeAg OD1 (HBeAg; 12.5 μg/mL): 1.561
HBeAg OD2 (HBeAg; 12.5 μg/mL): 1.316
HBeAg OD3 (HBeAg; 12.5 μg/mL): 1.303
HBeAg Ave (HBeAg; 25 μg/mL): 1.334
HBeAg Inhibition % (HBeAg; 25 μg/mL): 0%
HBeAg OD1 (HBeAg; 25 μg/mL): 1.375
HBeAg OD2 (HBeAg; 25 μg/mL): 1.335
HBeAg OD3 (HBeAg; 25 μg/mL): 1.293
HBeAg Ave (HBeAg; 50 μg/mL): 1.226
HBeAg Inhibition % (HBeAg; 50 μg/mL): 0%
HBeAg OD1 (HBeAg; 50 μg/mL): 1.295
HBeAg OD2 (HBeAg; 50 μg/mL): 1.259
HBeAg OD3 (HBeAg; 50 μg/mL): 1.123
HBeAg Ave (HBeAg; 100 μg/mL): 1.329
HBeAg Inhibition % (HBeAg; 100 μg/mL): 0%
HBeAg OD1 (HBeAg; 100 μg/mL): 1.162
HBeAg OD2 (HBeAg; 100 μg/mL): 1.391
HBeAg OD3 (HBeAg; 100 μg/mL): 1.435
HBsAg Ave. (HBsAg; 6.25 μg/mL): 1.407
HBsAg Inhibition % (HBsAg; 6.25 μg/mL): 0%
HBsAg OD1 (HBsAg; 6.25 μg/mL): 1.392
HBsAg OD2 (HBsAg; 6.25 μg/mL): 1.375
HBsAg OD3 (HBsAg; 6.25 μg/mL): 1.454
HBsAg Ave. (HBsAg; 12.5 μg/mL): 1.323
HBsAg Inhibition % (HBsAg; 12.5 μg/mL): 4.5%
HBsAg OD1 (HBsAg; 12.5 μg/mL): 1.370
HBsAg OD2 (HBsAg; 12.5 μg/mL): 1.372
HBsAg OD3 (HBsAg; 12.5 μg/mL): 1.227
HBsAg Ave. (HBsAg; 25 μg/mL): 1.300
HBsAg Inhibition % (HBsAg; 25 μg/mL): 6.1%
HBsAg OD1 (HBsAg; 25 μg/mL): 1.608
HBsAg OD2 (HBsAg; 25 μg/mL): 1.116
HBsAg OD3 (HBsAg; 25 μg/mL): 1.175
HBsAg Ave. (HBsAg; 50 μg/mL): 0.845
HBsAg Inhibition % (HBsAg; 50 μg/mL): 37.9%
HBsAg OD1 (HBsAg; 50 μg/mL): 0.935
HBsAg OD2 (HBsAg; 50 μg/mL): 0.926
HBsAg OD3 (HBsAg; 50 μg/mL): 0.675
HBsAg Ave. (HBsAg; 100 μg/mL): 0.656
HBsAg Inhibition % (HBsAg; 100 μg/mL): 52.6%
HBsAg OD1 (HBsAg; 100 μg/mL): 0.667
HBsAg OD2 (HBsAg; 100 μg/mL): 0.641
HBsAg OD3 (HBsAg; 100 μg/mL): 0.66
inhibition of HCV/HIV entry (HCV/HIV pseudovirions; 100 μg/mL, FIG. 1): approximately 80%
HBV DNA Average (HBV DNA; 6.25 μg/ml): 1.10 × 10^6 copies/ml
HBV DNA Inhibit (HBV DNA; 6.25 μg/ml): 5.99%
HBV DNA copies/ml (HBV DNA; 6.25 μg/ml): 1.26E+06 copies/ml and 9.83E+05 copies/ml and 1.06E+06 copies/ml
HBV DNA Average (HBV DNA; 12.5 μg/ml): 9.52 × 10^5 copies/ml
HBV DNA Inhibit (HBV DNA; 12.5 μg/ml): 8.60%
HBV DNA copies/ml (HBV DNA; 12.5 μg/ml): 1.16E+06 copies/ml and 9.17E+05 copies/ml and 7.78E+05 copies/ml
HBV DNA Average (HBV DNA; 25 μg/ml): 1.01 × 10^6 copies/ml
HBV DNA Inhibit (HBV DNA; 25 μg/ml): 13.70%
HBV DNA copies/ml (HBV DNA; 25 μg/ml): 1.02E+06 copies/ml and 9.74E+05 copies/ml and 1.04E+06 copies/ml
HBV DNA Average (HBV DNA; 50 μg/ml): 9.79 × 10^5 copies/ml
HBV DNA Inhibit (HBV DNA; 50 μg/ml): 16.30%
HBV DNA copies/ml (HBV DNA; 50 μg/ml): 1.05E+06 copies/ml and 9.27E+05 copies/ml and 9.59E+05 copies/ml
HBV DNA Average (HBV DNA; 100 μg/ml): 8.43 × 10^5 copies/ml
HBV DNA Inhibit (HBV DNA; 100 μg/ml): 27.90%
HBV DNA copies/ml (HBV DNA; 100 μg/ml): 7.90E+05 copies/ml and 7.94E+05 copies/ml and 9.44E+05 copies/ml

COC(=O)C1=CO[C@@H](O)[C@@H]2C(CO)=CC[C@H]12 [RD-4]
IC50 (HCV JFH1; Hepatitis C virus, read-out: Estimated IC50 (inhibition of HCV JFH1 infectivity)): 22 µg/mL (≈ 97.2 µM)
inhibition at 20 µg/mL (HCV/HIV pseudovirions; Hepatitis C virus, Huh-7, read-out: HCV Inhibition at 20 μg/mL): 73.2%
